This note sets out measurements from patent US20040106545A1, “Compounds and methods for modulating cell adhesion” (priority 1996, published 2004).

The target of one data set is T1, N-cadherin (Gallus gallus, UniProt P10288).
T1 construct: expressed in transfected cells; host or cells: 3T3 fibroblasts (monolayer)
T1 sequence (P10288 165-912): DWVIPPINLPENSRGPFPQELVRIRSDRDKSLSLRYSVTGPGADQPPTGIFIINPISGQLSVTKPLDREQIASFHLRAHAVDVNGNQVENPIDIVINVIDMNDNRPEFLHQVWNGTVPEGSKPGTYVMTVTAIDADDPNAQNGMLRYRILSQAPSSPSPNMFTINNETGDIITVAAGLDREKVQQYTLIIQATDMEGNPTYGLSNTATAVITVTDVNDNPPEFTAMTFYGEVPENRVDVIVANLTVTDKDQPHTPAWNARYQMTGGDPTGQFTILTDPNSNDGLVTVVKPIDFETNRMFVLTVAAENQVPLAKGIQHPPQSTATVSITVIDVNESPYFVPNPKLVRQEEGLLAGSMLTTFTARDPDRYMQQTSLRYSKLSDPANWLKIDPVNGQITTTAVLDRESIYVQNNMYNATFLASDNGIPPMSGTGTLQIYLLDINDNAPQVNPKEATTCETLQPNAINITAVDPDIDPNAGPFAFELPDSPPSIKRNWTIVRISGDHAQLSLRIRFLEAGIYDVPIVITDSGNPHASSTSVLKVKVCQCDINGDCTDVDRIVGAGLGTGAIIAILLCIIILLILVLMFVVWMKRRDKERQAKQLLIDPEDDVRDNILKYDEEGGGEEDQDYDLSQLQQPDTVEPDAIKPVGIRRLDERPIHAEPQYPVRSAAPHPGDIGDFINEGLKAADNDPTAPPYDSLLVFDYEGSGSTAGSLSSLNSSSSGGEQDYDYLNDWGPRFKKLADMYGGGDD
As to the kind of experiment: Neurite outgrowth of mouse cerebellar neurons on N-cadherin expressing 3T3 monolayers (Example 2). Type of data set: cell-based. From the text: Within a representative neurite outgrowth assay, neurons may be cultured on a monolayer of cells (e.g., 3T3) that express N-cadherin. […] For example, neurons may be cultured on monolayers of 3T3 cells transfected with cDNA encoding N-cadherin essentially as described by Doherty and Walsh, Curr. Op. Neurobiol. 4:49-55, 1994; Williams et al., Neuron 13:583-594, 1994; Hall et al., Cell Adhesion and Commun. 3:441-450, 1996; Doherty and Walsh, Mol. Cell. Neurosci. 8:99-111, 1994; and Safell et al., Neuron 18:231-242, 1997. Briefly, monolayers of control 3T3 fibroblasts and 3T3 fibroblasts that express N-cadherin may be established by overnight culture of 80,000 cells in individual wells of an 8-chamber well tissue culture slide. 3000 cerebellar neurons isolated from post-natal day 3 mouse brains may be cultured for 18 hours on the various monolayers in control media (SATO/2% FCS), or media supplemented with various concentrations of the modulating agent or control peptide. The cultures may then be fixed and stained for GAP43 which specifically binds to the neurons and their neurites. The length of the longest neurite on each GAP43 positive neuron may be measured by computer assisted morphometry.
Neurons were cultured on monolayers of 3T3 cells transfected with cDNA encoding N-cadherin essentially as described by Doherty and Walsh, Curr. Op. Neurobiol. 4:49-55, 1994; Williams et al., Neuron 13:583-594, 1994; Hall et al., Cell Adhesion and Commun. 3:441-450, 1996; Doherty and Walsh, Mol. Cell. Neurosci. 8:99-111, 1994; Safell et al., Neuron 18:231-242, 1997. Briefly, monolayers of control 3T3 fibroblasts and 3T3 fibroblasts that express N-cadherin were established by overnight culture of 80,000 cells in individual wells of an 8-chamber well tissue culture slide. […] The length of the longest neurite on each GAP43 positive neuron was then measured by computer assisted morphometry.

In the next data set the test system is OVCAR-3. As to the kind of experiment: Disruption of OVCAR-3 ovarian cancer cell adhesion. Type of data set: cell-based, human. The following applies: 1, 0.1, or 0.01 mg/ml, up to 48 hours. The method, then:
The human ovarian cancer cell line OVCAR-3, which expresses E-cadherin, was used in these experiments. Cells were cultured in RPMI supplemented with insulin and containing 20% FCS. Cells were grown in T-250 culture flasks and maintained by periodic subculturing. Cells were harvested from flasks and seeded in individual wells of 96-well culture dishes (surface area of each well was 0.32 cm^2) at a density of 50,000 cells per well in 0.1 ml media containing the cyclic peptides (at concentrations of 1, 0.1, or 0.01 mg/ml). Media control wells were also established. Cultures were evaluated periodically by microscopic examination under both bright field and phase contrast conditions, and were maintained for 48 hours.

The nature of data set [1]: Cytotoxicity, MTT assay, HUVEC. Type of data set: cell-based. The following applies: human, HUVEC (human umbilical vein endothelial cells), read-out: HUVEC Cytotox (IC50). On the procedure:
(§1) N—Ac-CHAVC-NH2 (SEQ ID NO:10) and the control peptide N—Ac-CHGVC-NH2 (SEQ ID NO:11) were evaluated for possible cytotoxic effects on human microvascular endothelial (HMVEC; Clonetics), human umbilical vein endothelial (HUVEC; ATCC #CRL-1730), IAFp2 (human fibroblast cell line; Institute Armand-Frapier, Montreal, Quebec), WI-38 (human fibroblast cell line; ATCC #CCL-75), MDA-MB231 (human breast cancer cell line; ATCC #HTB-26), and PC-3 (human prostate cancer cell line; ATCC #CRL-1435) cells utilizing the MTT assay (Plumb et al., Cancer Res. 49:4435-4440, 1989). Neither of the peptides was cytotoxic at concentrations up to and including 100 μM. Similarly, neither of the peptides was capable of inhibiting the proliferation of the above cell lines at concentrations up to 100 μM, as judged by ^3H-thymidine incorporation assays.

A short description of data set [2]: Cytotoxicity, MTT assay, IAFp2. Type of data set: cell-based. The following applies: human, read-out: IAFp2 Cytotox (IC50). On the procedure: as §1
(Tetrazolium dyes change colour on reduction, which living cells bring about.)

The subject of the next data set is mice. Kind of data set: Acute toxicity study in mice. Type of data set: in vivo, mouse. The method, then:
Mice were injected intraperitoneally for seven consecutive days with 20 mg/kg of N—Ac-CHAVC-NH2 (SEQ ID NO:10) and sacrificed 24 hr after treatment.
Mice were injected intraperitoneally with 125 mg/kg of N—Ac-CHAVC-NH2 (SEQ ID NO:10) for three consecutive days and sacrificed on the fourth day.
Mice were injected intravenously with either a saline control or 200 mg/kg of N—Ac-CHAVC-NH2 (SEQ ID NO:10). Mice were sacrificed after 24 hours, or allowed a 14-day recovery period.

A word on the IC50: it is the concentration at which inhibition is half-maximal. `CC(=O)N[C@H]1CSSC[C@@H](C(N)=O)NC(=O)[C@H](C(C)C)NC(=O)[C@H](C)NC(=O)[C@H](Cc2c[nH]cn2)NC1=O` [N—Ac—CHAVC—NH2, N-Ac-Cys-His-Ala-Val-Cys-NH2]: the “inhibition of neurite outgrowth on 3T3 cells expressing N-cadherin” value was “significantly inhibited neurite outgrowth” at N-cadherin (50 μg/mL) and “completely inhibited neurite outgrowth” at N-cadherin (500 μg/mL, 18 hours). Moreover, the “disruption of OVCAR-3 adhesion” value in the data set on OVCAR-3 was “inactive”. Moreover, the IC50 in data set [1] and in data set [2] (IAFp2 fibroblast cell line) was greater than 100 µM in each case. For the same molecule, the “gross or histopathological findings” value in the data set on mice (intraperitoneally, 125 mg/kg, three consecutive days, sacrificed on the fourth day) is recorded as “No gross or histopathological findings related to the treatment were found”; in the data set with mice (intraperitoneally, seven consecutive days, 20 mg/kg, sacrificed 24 hr after treatment), “No gross or histopathological findings related to the treatment were found”; in the data set with mice (intravenously, 200 mg/kg, sacrificed after 24 hours or 14-day recovery), “no gross or histopathological findings related to the treatment were found”. In addition, the mortality entry in the data set on mice (intravenously, 200 mg/kg) is “no animals died during the study”.

As to `CC(=O)N[C@H]1CSSC[C@@H](C(N)=O)NC(=O)[C@H](C(C)C)NC(=O)CNC(=O)[C@H](Cc2c[nH]cn2)NC1=O` [N—Ac—CHGVC—NH2, reference compound], at N-cadherin (500 μg/mL, 18 hours), the “inhibition of neurite outgrowth on 3T3 cells expressing N-cadherin” value is listed as “had no effect on this process”. The IC50 in data set [1] and in data set [2] (IAFp2 cells (human fibroblast cell line)) was greater than 100 µM throughout.
